Patent US7847070B2, “LUCA2 and antibodies that bind thereto” (Raven biotechnologies, inc., priority 2005, dated 2010)

Test system: Hs700T human pancreatic adenocarcinoma cells
Test: Subcutaneous model of human pancreatic adenocarcinoma
Type: in vivo, NCR.nu/nu homozygous mice
Conditions: 5FU 35 mg/kg intraperitoneally, once weekly for 4 treatments
Experimental: This study was designed to test the dose-responsive anti-tumor data for an anti-LUCA2 antibody in a subcutaneous model of pancreatic cancer. Fluorouracil (5FU), a cytotoxic chemotherapy agent, was used as a positive control and tested to see if there was a cumulative effect with mu-anti-LUCA2 and 5FU.
Cultured Hs700T human pancreatic adenocarcinoma cells were trypsinized, washed in media, spun down and resuspended in media at 100 million cells per milliliter of media (5 million cells per 0.05 mL volume), then mixed in an equal volume of Matrigel® for a final injection volume of 0.1 mL. 72 NCR.nu/nu homozygous mice were dosed intraperitoneally during the study. The groups were (1) saline control at 0.2 mL, twice weekly for 10 treatments (2) mu-anti-LUCA2 antibody at 50 mg/kg, twice weekly for 10 treatments, (3) Fluorouracil (5FU) at 35 mg/kg, once weekly for 4 treatments, and (4) mu-anti-LUCA2 antibody at 50 mg/kg and 5FU at 35 mg/kg, twice weekly for 10 treatments.
Tumor growth over time was evaluated to determine anti-tumor activity. Tumors were palpable prior to initiation of therapy. Animals responding to antibody treatment were maintained after treatment cessation to determine time to tumor regrowth.

O=c1[nH]cc(F)c(=O)[nH]1 [5FU, Fluorouracil]
tumor volume inhibition compared to saline control: approximately 21.5%
